# Measurements from patent US11040028B2, “Penicinotam derivative, preparation method and use thereof” (OCEAN UNIVERSITY OF CHINA, priority 2017, dated 2021).
# Tested on: BHK-21 cells
# Assay: Anti-fibrosis activity test: inhibition of BHK-21 cell proliferation (CCK-8)
# Assay type: cell-based
# Conditions: Mesocricetus auratus, BHK-21, 48 h, CCK-8, 48 hours after administration
# How it was run: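 Read-out: CCK-8 absorbance at 450 nm after 2 h, giving proliferation inhibition (1−Ai/Ao)×100% versus blank control, from which IC50 was derived. Cells had been treated with compounds for 48 h after 24 h adherence at 37° C. Pirfenidone served as positive control.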
row,Structure (SMILES),IC50 [mM]
1,"COc1cc(Cn2c3c(c(=O)c4ccccc42)C(=O)n2cccc2-3)cc(OC)c1 [Compound 580a, 4-(3,5-Dimethoxybenzyl)-9H-pyrrolizino[1,2-b]quinoline-9,10(4H)-dione]",0.05 to 5
2,"O=C1c2c(nc3ccccc3c2OCc2cccc(Cl)c2)-c2cccn21 [Compound 596b, 9-((3-chlorobenzyl)oxy)-10H-pyrrolizino[1,2-b]quinolin-10-one]",0.05 to 5
3,"O=C1c2c(nc3ccccc3c2OCc2ccccc2Br)-c2cccn21 [Compound 612b, 9-((2-bromobenzyl)oxy)-10H-pyrrolizino[1,2-b]quinolin-10-one]",0.05 to 5
4,"O=C1c2c(n(Cc3ccccc3I)c3ccccc3c2=O)-c2cccn21 [Compound 576a, 4-(2-Iodobenzyl)-9H-pyrrolizino[1,2-b]quinoline-9,10(4H)-dione]",0.05 to 5
5,"O=C1c2c(nc3c(O)cccc3c2O)-c2cccn21 [Compound 445b, 5,9-dihydroxy-10H-pyrrolizino[1,2-b]quinolin-10-one]",0.05 to 5

# Tested on: human lung fibroblasts HFL1
# Assay: Anti-fibrosis activity test: inhibition of proliferation of human lung fibroblasts HFL1 (CCK-8)
# Assay type: cell-based
# Conditions: Homo sapiens, HFL1, 48 h, human lung fibroblasts HFL1, CCK-8, 48 hours
# How it was run: (§1)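 Exponentially growing cells, 2×10^4 cells/mL, attached 24 h. Dosed 48 h across concentrations (n=3). CCK-8 2 h → A450; IR vs blank; IC50.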
row,Structure (SMILES),IC50 [mM]
1,"COc1cc(Cn2c3c(c(=O)c4ccccc42)C(=O)n2cccc2-3)cc(OC)c1 [Compound 580a, 4-(3,5-Dimethoxybenzyl)-9H-pyrrolizino[1,2-b]quinoline-9,10(4H)-dione]",0.05 to 5
2,"O=C1c2c(nc3ccccc3c2OCc2cccc(Cl)c2)-c2cccn21 [Compound 596b, 9-((3-chlorobenzyl)oxy)-10H-pyrrolizino[1,2-b]quinolin-10-one]",0.05 to 5
3,"O=C1c2c(nc3ccccc3c2OCc2ccccc2Br)-c2cccn21 [Compound 612b, 9-((2-bromobenzyl)oxy)-10H-pyrrolizino[1,2-b]quinolin-10-one]",0.05 to 5
4,"O=C1c2c(n(Cc3ccccc3I)c3ccccc3c2=O)-c2cccn21 [Compound 576a, 4-(2-Iodobenzyl)-9H-pyrrolizino[1,2-b]quinoline-9,10(4H)-dione]",0.05 to 5
5,"O=C1c2c(nc3c(O)cccc3c2O)-c2cccn21 [Compound 445b, 5,9-dihydroxy-10H-pyrrolizino[1,2-b]quinolin-10-one]",0.05 to 5

# Tested on: human hepatic stellate cells LX-2
# Assay: Anti-fibrosis activity test: inhibition of proliferation of human hepatic stellate cells LX-2 (CCK-8)
# Assay type: cell-based
# Conditions: Homo sapiens, 48 h, human hepatic stellate cells LX-2, CCK-8, 48 hours
# How it was run: as §1
row,Structure (SMILES),IC50 [mM]
1,"COc1cc(Cn2c3c(c(=O)c4ccccc42)C(=O)n2cccc2-3)cc(OC)c1 [Compound 580a, 4-(3,5-Dimethoxybenzyl)-9H-pyrrolizino[1,2-b]quinoline-9,10(4H)-dione]",0.05 to 5
2,"O=C1c2c(nc3ccccc3c2OCc2cccc(Cl)c2)-c2cccn21 [Compound 596b, 9-((3-chlorobenzyl)oxy)-10H-pyrrolizino[1,2-b]quinolin-10-one]",0.05 to 5
3,"O=C1c2c(nc3ccccc3c2OCc2ccccc2Br)-c2cccn21 [Compound 612b, 9-((2-bromobenzyl)oxy)-10H-pyrrolizino[1,2-b]quinolin-10-one]",0.05 to 5
4,"O=C1c2c(n(Cc3ccccc3I)c3ccccc3c2=O)-c2cccn21 [Compound 576a, 4-(2-Iodobenzyl)-9H-pyrrolizino[1,2-b]quinoline-9,10(4H)-dione]",0.05 to 5
5,"O=C1c2c(nc3c(O)cccc3c2O)-c2cccn21 [Compound 445b, 5,9-dihydroxy-10H-pyrrolizino[1,2-b]quinolin-10-one]",0.05 to 5

# Tested on: human fibrosarcoma cells HT-1080
# Assay: Anti-fibrosis activity test: inhibition of proliferation of human fibrosarcoma cells HT-1080 (CCK-8)
# Assay type: cell-based
# Conditions: Homo sapiens, HT-1080, 48 h, human fibrosarcoma cells HT-1080, CCK-8, 48 hours
# How it was run: as §1
row,Structure (SMILES),IC50 [mM]
1,"COc1cc(Cn2c3c(c(=O)c4ccccc42)C(=O)n2cccc2-3)cc(OC)c1 [Compound 580a, 4-(3,5-Dimethoxybenzyl)-9H-pyrrolizino[1,2-b]quinoline-9,10(4H)-dione]",0.05 to 5
2,"O=C1c2c(nc3ccccc3c2OCc2cccc(Cl)c2)-c2cccn21 [Compound 596b, 9-((3-chlorobenzyl)oxy)-10H-pyrrolizino[1,2-b]quinolin-10-one]",0.05 to 5
3,"O=C1c2c(nc3ccccc3c2OCc2ccccc2Br)-c2cccn21 [Compound 612b, 9-((2-bromobenzyl)oxy)-10H-pyrrolizino[1,2-b]quinolin-10-one]",0.05 to 5
4,"O=C1c2c(n(Cc3ccccc3I)c3ccccc3c2=O)-c2cccn21 [Compound 576a, 4-(2-Iodobenzyl)-9H-pyrrolizino[1,2-b]quinoline-9,10(4H)-dione]",0.05 to 5
5,"O=C1c2c(nc3c(O)cccc3c2O)-c2cccn21 [Compound 445b, 5,9-dihydroxy-10H-pyrrolizino[1,2-b]quinolin-10-one]",0.05 to 5

# Tested on: human dermal fibroblasts CCC-ESF-1
# Assay: Anti-fibrosis activity test: inhibition of proliferation of human dermal fibroblasts CCC-ESF-1 (CCK-8)
# Assay type: cell-based
# Conditions: Fibroblast; human dermal fibroblasts CCC-ESF-1, CCK-8, 48 hours
# How it was run: as §1
row,Structure (SMILES),IC50 [mM]
1,"COc1cc(Cn2c3c(c(=O)c4ccccc42)C(=O)n2cccc2-3)cc(OC)c1 [Compound 580a, 4-(3,5-Dimethoxybenzyl)-9H-pyrrolizino[1,2-b]quinoline-9,10(4H)-dione]",0.05 to 5
2,"O=C1c2c(nc3ccccc3c2OCc2cccc(Cl)c2)-c2cccn21 [Compound 596b, 9-((3-chlorobenzyl)oxy)-10H-pyrrolizino[1,2-b]quinolin-10-one]",0.05 to 5
3,"O=C1c2c(nc3ccccc3c2OCc2ccccc2Br)-c2cccn21 [Compound 612b, 9-((2-bromobenzyl)oxy)-10H-pyrrolizino[1,2-b]quinolin-10-one]",0.05 to 5
4,"O=C1c2c(n(Cc3ccccc3I)c3ccccc3c2=O)-c2cccn21 [Compound 576a, 4-(2-Iodobenzyl)-9H-pyrrolizino[1,2-b]quinoline-9,10(4H)-dione]",0.05 to 5
5,"O=C1c2c(nc3c(O)cccc3c2O)-c2cccn21 [Compound 445b, 5,9-dihydroxy-10H-pyrrolizino[1,2-b]quinolin-10-one]",0.05 to 5

# Tested on: human embryonic lung fibroblast IMR-90
# Assay: Anti-fibrosis activity test: inhibition of proliferation of human embryonic lung fibroblast IMR-90 (CCK-8)
# Assay type: cell-based
# Conditions: human embryonic lung fibroblast IMR-90, CCK-8, 48 hours
# How it was run: as §1
row,Structure (SMILES),IC50 [mM]
1,"COc1cc(Cn2c3c(c(=O)c4ccccc42)C(=O)n2cccc2-3)cc(OC)c1 [Compound 580a, 4-(3,5-Dimethoxybenzyl)-9H-pyrrolizino[1,2-b]quinoline-9,10(4H)-dione]",0.05 to 5
2,"O=C1c2c(nc3ccccc3c2OCc2cccc(Cl)c2)-c2cccn21 [Compound 596b, 9-((3-chlorobenzyl)oxy)-10H-pyrrolizino[1,2-b]quinolin-10-one]",0.05 to 5
3,"O=C1c2c(nc3ccccc3c2OCc2ccccc2Br)-c2cccn21 [Compound 612b, 9-((2-bromobenzyl)oxy)-10H-pyrrolizino[1,2-b]quinolin-10-one]",0.05 to 5
4,"O=C1c2c(n(Cc3ccccc3I)c3ccccc3c2=O)-c2cccn21 [Compound 576a, 4-(2-Iodobenzyl)-9H-pyrrolizino[1,2-b]quinoline-9,10(4H)-dione]",0.05 to 5
5,"O=C1c2c(nc3c(O)cccc3c2O)-c2cccn21 [Compound 445b, 5,9-dihydroxy-10H-pyrrolizino[1,2-b]quinolin-10-one]",0.05 to 5

# Tested on: cardiac fibroblast RAT-iCell-C002
# Assay: Anti-fibrosis activity test: inhibition of proliferation of cardiac fibroblast RAT-iCell-C002 (CCK-8)
# Assay type: cell-based
# Conditions: Cardiac fibroblast, 48 h, cardiac fibroblast RAT-iCell-C002, CCK-8, 48 hours
# How it was run: as §1
row,Structure (SMILES),IC50 [mM]
1,"COc1cc(Cn2c3c(c(=O)c4ccccc42)C(=O)n2cccc2-3)cc(OC)c1 [Compound 580a, 4-(3,5-Dimethoxybenzyl)-9H-pyrrolizino[1,2-b]quinoline-9,10(4H)-dione]",0.05 to 5
2,"O=C1c2c(nc3ccccc3c2OCc2cccc(Cl)c2)-c2cccn21 [Compound 596b, 9-((3-chlorobenzyl)oxy)-10H-pyrrolizino[1,2-b]quinolin-10-one]",0.05 to 5
3,"O=C1c2c(nc3ccccc3c2OCc2ccccc2Br)-c2cccn21 [Compound 612b, 9-((2-bromobenzyl)oxy)-10H-pyrrolizino[1,2-b]quinolin-10-one]",0.05 to 5
4,"O=C1c2c(n(Cc3ccccc3I)c3ccccc3c2=O)-c2cccn21 [Compound 576a, 4-(2-Iodobenzyl)-9H-pyrrolizino[1,2-b]quinoline-9,10(4H)-dione]",0.05 to 5
5,"O=C1c2c(nc3c(O)cccc3c2O)-c2cccn21 [Compound 445b, 5,9-dihydroxy-10H-pyrrolizino[1,2-b]quinolin-10-one]",0.05 to 5

# Tested on: NF-κB
# Assay: Immunological activity test: inhibition of NF-κB activity
# Assay type: cell-based
# Conditions: initial concentration of 30 μM; a/b isomers given as first/second symbol; read-out: IC50 (μM), inhibitory activity against NF-κB
# How it was run: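 NF-κB inhibition was tested at an initial 30 μM compound concentration, with parthenolide as positive control, and IC50 values were determined from follow-up analysis.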
row,Structure (SMILES),IC50 [µM]
1,"COc1cc(Cn2c3c(c(=O)c4ccccc42)C(=O)n2cccc2-3)cc(OC)c1 [Compound 580a, 4-(3,5-Dimethoxybenzyl)-9H-pyrrolizino[1,2-b]quinoline-9,10(4H)-dione]",1 to 10
2,"O=C1c2c(nc3ccccc3c2OCc2cccc(Cl)c2)-c2cccn21 [Compound 596b, 9-((3-chlorobenzyl)oxy)-10H-pyrrolizino[1,2-b]quinolin-10-one]",1 to 10
3,"O=C1c2c(nc3ccccc3c2OCc2ccccc2Br)-c2cccn21 [Compound 612b, 9-((2-bromobenzyl)oxy)-10H-pyrrolizino[1,2-b]quinolin-10-one]",1 to 10
4,"O=C1c2c(n(Cc3ccccc3I)c3ccccc3c2=O)-c2cccn21 [Compound 576a, 4-(2-Iodobenzyl)-9H-pyrrolizino[1,2-b]quinoline-9,10(4H)-dione]",1 to 10
5,"O=C1c2c(nc3c(O)cccc3c2O)-c2cccn21 [Compound 445b, 5,9-dihydroxy-10H-pyrrolizino[1,2-b]quinolin-10-one]",1 to 10

# Tested on: mouse macrophages (RAW264.7)
# Assay: Lipopolysaccharide-induced NO secretion in macrophages (Griess)
# Assay type: cell-based
# Conditions: Mus musculus, RAW264.7, 24 h, RAW264.7, LPS 1 μg/ml, a/b isomers given as first/second symbol, read-out: IC50 (μM), inhibition of lipopolysaccharide-induced NO secretion in macrophages
# How it was run: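 RAW264.7 cells in DMEM with 10% FBS were treated with test compounds at several concentrations, then stimulated with LPS (1 μg/ml) for 24 hours. Nitrite in the supernatant was measured by Griess reaction at 548 nm, and percent inhibition was calculated against blank-medium controls.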
row,Structure (SMILES),IC50 [µM]
1,"COc1cc(Cn2c3c(c(=O)c4ccccc42)C(=O)n2cccc2-3)cc(OC)c1 [Compound 580a, 4-(3,5-Dimethoxybenzyl)-9H-pyrrolizino[1,2-b]quinoline-9,10(4H)-dione]",0.1 to 1
2,"O=C1c2c(nc3ccccc3c2OCc2cccc(Cl)c2)-c2cccn21 [Compound 596b, 9-((3-chlorobenzyl)oxy)-10H-pyrrolizino[1,2-b]quinolin-10-one]",1 to 10
3,"O=C1c2c(nc3ccccc3c2OCc2ccccc2Br)-c2cccn21 [Compound 612b, 9-((2-bromobenzyl)oxy)-10H-pyrrolizino[1,2-b]quinolin-10-one]",10 to 50
4,"O=C1c2c(n(Cc3ccccc3I)c3ccccc3c2=O)-c2cccn21 [Compound 576a, 4-(2-Iodobenzyl)-9H-pyrrolizino[1,2-b]quinoline-9,10(4H)-dione]",1 to 10
5,"O=C1c2c(nc3c(O)cccc3c2O)-c2cccn21 [Compound 445b, 5,9-dihydroxy-10H-pyrrolizino[1,2-b]quinolin-10-one]",1 to 10
